Experimental data taken from patent US10258041B2, “Substituted pyrazolylpyrazole derivative and use of same as herbicide” (KYOYU AGRI CO., LTD., priority 2015, dated 2019).

Assays:
Format in all cases: in vivo
Amaranthus retroflexus [1] = experiment: Farming soil treatment test; details: soil surface spray prior to weed growth, 30 days, 30° C.
Procedure: (§1) Evaluation of herbicidal efficacy was carried out by comparing growth inhibition rate (%) with an untreated group, while evaluation of chemical damage was carried out by comparing growth inhibition rate (%) with the state of a complete eradication group, and were evaluated at 11 levels indicated below. • 0 (exponent): 0% to less than 10% (growth inhibition rate) • 1: 10% to less than 20% • 2: 20% to less than 30% • 3: 30% to less than 40% • 4: 40% to less than 50% • 5: 50% to less than 60% • 6: 60% to less than 70% • 7: 70% to less than 80% • 8: 80% to less than 90% • 9: 90% to less than 100% • 10: 100% Field soil was filled into a 1/6000 are pot followed by seeding with Digitaria ciliaris, Chenopodium album and Amraranthus retroflexus and covering with soil. Wettable powders of compounds of formula (I) shown in Table 1 prepared in compliance with the preparation examples were diluted with water to the prescribed amount of chemical and uniformly sprayed onto each soil surface layer using 100 liters of sprayed water per 10 are prior to weed growth following seeding. After treating for 30 days in a glass greenhouse at an average atmospheric temperature of 30° C., the herbicidal efficacy thereof was investigated. Evaluation of herbicidal efficacy was carried out in the same manner as the above-mentioned Test Example 1,

Chenopodium album [2] = experiment: Farming soil treatment test; details: soil surface spray prior to weed growth, 30 days, 30° C.
Procedure: as §1

Digitaria ciliaris [3] = experiment: Farming soil treatment test; details: soil surface spray prior to weed growth, 30 days, 30° C.
Procedure: as §1

Oryza sativa = experiment: Paddy herbicidal activity test, chemical damage to transplanted rice; details: rice transplanted in 2.0 leaf stage, 30 days
Procedure: (§2) Rice paddy soil was filled into a 1/10000 are pot followed by the addition of suitable amounts of water and chemical fertilizer, kneading, seeding with Echinochloa crus-galli, Monochoria vaginalis and Scirpus juncoides and maintaining in an irrigated state at a water depth of 3 cm. Wettable powders of Target Compound (I) shown in Table 1 prepared in compliance with the preparation examples were diluted with a suitable amount of water, rice plants in the 2.0 leaf stage were transplanted during 3.5 leaf stage of Echinochloa crus-galli, and treated by dropping in chemical in the prescribed amount per 10 are using a pipette. After treating for 30 days in a glass greenhouse at an average atmospheric temperature of […], the herbicidal efficacy thereof was investigated. Evaluation of herbicidal efficacy was carried out by comparing growth inhibition rate (%) with an untreated group, while evaluation of chemical damage was carried out by comparing growth inhibition rate (%) with the state of a complete eradication group, and were evaluated at 11 levels indicated below. • 0 (exponent): 0% to less than 10% (growth inhibition rate) • 1: 10% to less than 20% • 2: 20% to less than 30% • 3: 30% to less than 40% • 4: 40% to less than 50% • 5: 50% to less than 60% • 6: 60% to less than 70% • 7: 70% to less than 80% • 8: 80% to less than 90% • 9: 90% to less than 100% • 10: 100%

Galinsoga parviflora = experiment: Weed foliar treatment test (Test 4, higher leaf stage); details: 10 g a.i./10a; foliar spray at 4.0 to 5.0 leaf stage of Digitaria ciliaris; 20 days, 25° C.
Procedure: (§3) Evaluation of herbicidal efficacy was carried out by comparing growth inhibition rate (%) with an untreated group, while evaluation of chemical damage was carried out by comparing growth inhibition rate (%) with the state of a complete eradication group, and were evaluated at 11 levels indicated below. • 0 (exponent): 0% to less than 10% (growth inhibition rate) • 1: 10% to less than 20% • 2: 20% to less than 30% • 3: 30% to less than 40% • 4: 40% to less than 50% • 5: 50% to less than 60% • 6: 60% to less than 70% • 7: 70% to less than 80% • 8: 80% to less than 90% • 9: 90% to less than 100% • 10: 100% Field soil was filled into a 1/4500 are pot followed by seeding with Digitaria ciliaris and Galinsoga parviflora, covering with soil and cultivating in a glass greenhouse at an average atmospheric temperature of 25° C. Wettable powders of Target Compound (I) shown, in Table 1 prepared in compliance with the preparation examples were diluted with water to the prescribed amount of chemical and uniformly sprayed onto the weeds using 100 liters of sprayed water per 10 are when Digitaria ciliaris had grown to the 4.0 to 5.0 leaf stage (plant height: 10 cm to 15 cm). After treating for 20 days in a glass greenhouse at an average atmospheric temperature of 25° C., the herbicidal efficacy thereof was investigated. Evaluation of herbicidal efficacy was carried out in the same manner as the above-mentioned Test Example 1.

Digitaria ciliaris [4] = experiment: as above; details: 10 g a.i./10a; foliar spray at 4.0 to 5.0 leaf stage of Digitaria ciliaris (plant height 10 cm to 15 cm); 20 days, 25° C.
Procedure: as §3

Amaranthus retroflexus [5] = experiment: Weed foliar treatment test (Test 3); details: foliar spray at 1.0 to 2.0 leaf stage of Digitaria ciliaris, 3 weeks, 25° C.
Procedure: (§4) Evaluation of herbicidal efficacy was carried out by comparing growth inhibition rate (%) with an untreated group, while evaluation of chemical damage was carried out by comparing growth inhibition rate (%) with the state of a complete eradication group, and were evaluated at 11 levels indicated below. • 0 (exponent): 0% to less than 10% (growth inhibition rate) • 1: 10% to less than 20% • 2: 20% to less than 30% • 3: 30% to less than 40% • 4: 40% to less than 50% • 5: 50% to less than 60% • 6: 60% to less than 70% • 7: 70% to less than 80% • 8: 80% to less than 90% • 9: 90% to less than 100% • 10: 100% Soil was filled into a 1/6000 are pot followed by seeding with Digitaria ciliaris, Chenopodium album and Amaranthus retroflexus, covering with soil, and cultivating in a glass greenhouse at an average atmospheric temperature of 25° C. Wettable powders of Target Compound (I) shown in Table 1 prepared in compliance with the preparation examples were diluted with water to the prescribed amount of chemical and uniformly sprayed onto the weeds using 150 liters of sprayed water per 10 are when Digitaria ciliaris had grown to the 1.0 to 2.0 leaf stage. After treating for 3 weeks in a glass greenhouse at an average atmospheric temperature of 25° C., the herbicidal efficacy thereof was investigated. Evaluation of herbicidal efficacy was carried out in the same manner as the above-mentioned Test Example 1.

Chenopodium album [6] = experiment: Weed foliar treatment test (Test 3); details: foliar spray at 1.0 to 2.0 leaf stage of Digitaria ciliaris, 3 weeks, 25° C.
Procedure: as §4

Digitaria ciliaris [7] = experiment: Weed foliar treatment test (Test 3); details: foliar spray at 1.0 to 2.0 leaf stage of Digitaria ciliaris, 3 weeks, 25° C.
Procedure: as §4

Monochoria vaginalis = experiment: Paddy herbicidal activity test; details: irrigated pot, treated at 3.5 leaf stage of Echinochloa crus-galli, 30 days
Procedure: as §2

Scirpus juncoides = experiment: Paddy herbicidal activity test; details: irrigated pot, treated at 3.5 leaf stage of Echinochloa crus-galli, 30 days
Procedure: as §2

Echinochloa crus-galli = experiment: Paddy herbicidal activity test; details: irrigated pot, treated at 3.5 leaf stage of Echinochloa crus-galli, 30 days
Procedure: as §2

With `N#Cc1cnn(-c2nn3c(c2Cl)CCCC3)c1NC(=O)CCCCl` [Control Agent 1.37] as the compound, how does the “herbicidal efficacy (growth inhibition rate level), Amaranthus retroflexus” value (Amaranthus retroflexus [1]; 5 g a.i./10a) read?
Its value is 5 (5: 50% to less than 60%).

What about the “herbicidal efficacy (growth inhibition rate level), Amaranthus retroflexus” value (Amaranthus retroflexus [1]; 10 g a.i./10a) of the same compound?
Its value is 6 (6: 60% to less than 70%).

What about the “herbicidal efficacy (growth inhibition rate level), Chenopodium album” value (Chenopodium album [2]; 5 g a.i./10a) of the same compound?
Its value is 4 (4: 40% to less than 50%).

What about the “herbicidal efficacy (growth inhibition rate level), Chenopodium album” value (Chenopodium album [2]; 10 g a.i./10a) of the same compound?
Its value is 5 (5: 50% to less than 60%).

And the “herbicidal efficacy (growth inhibition rate level), Digitaria ciliaris” value (Digitaria ciliaris [3]; 5 g a.i./10a)?
Its value is 3 (3: 30% to less than 40%).

And the “herbicidal efficacy (growth inhibition rate level), Digitaria ciliaris” value (Digitaria ciliaris [3]; 10 g a.i./10a)?
The value was 4 (4: 40% to less than 50%).

And the “chemical damage (growth inhibition rate level), Oryza sativa” value (Oryza sativa; 1 g a.i./10a)?
Its value is 2 (2: 20% to less than 30%).

And the “chemical damage (growth inhibition rate level), Oryza sativa” value (Oryza sativa; 5 g a.i./10a)?
The value was 2 (2: 20% to less than 30%).

What about the “herbicidal efficacy (growth inhibition rate level), Galinsoga parviflora” value (Galinsoga parviflora) of the same compound?
The value was 4 (4: 40% to less than 50%).

What about the “herbicidal efficacy (growth inhibition rate level), Digitaria ciliaris” value (Digitaria ciliaris [4]) of the same compound?
Its value is 2 (2: 20% to less than 30%).

And the “herbicidal efficacy (growth inhibition rate level), Amaranthus retroflexus” value (Amaranthus retroflexus [5]; 5 g a.i./10a)?
The value was 6 (6: 60% to less than 70%).

What about the “herbicidal efficacy (growth inhibition rate level), Amaranthus retroflexus” value (Amaranthus retroflexus [5]; 10 g a.i./10a) of the same compound?
Its value is 7 (7: 70% to less than 80%).

And the “herbicidal efficacy (growth inhibition rate level), Chenopodium album” value (Chenopodium album [6]; 5 g a.i./10a)?
Its value is 4 (4: 40% to less than 50%).

And the “herbicidal efficacy (growth inhibition rate level), Chenopodium album” value (Chenopodium album [6]; 10 g a.i./10a)?
Its value is 5 (5: 50% to less than 60%).

What about the “herbicidal efficacy (growth inhibition rate level), Digitaria ciliaris” value (Digitaria ciliaris [7]; 5 g a.i./10a) of the same compound?
Its value is 3 (3: 30% to less than 40%).

What about the “herbicidal efficacy (growth inhibition rate level), Digitaria ciliaris” value (Digitaria ciliaris [7]; 10 g a.i./10a) of the same compound?
The value was 4 (4: 40% to less than 50%).

And the “herbicidal efficacy (growth inhibition rate level), Monochoria vaginalis” value (Monochoria vaginalis; 1 g a.i./10a)?
Its value is 2 (2: 20% to less than 30%).

What about the “herbicidal efficacy (growth inhibition rate level), Monochoria vaginalis” value (Monochoria vaginalis; 5 g a.i./10a) of the same compound?
The value was 4 (4: 40% to less than 50%).

What about the “herbicidal efficacy (growth inhibition rate level), Scirpus juncoides” value (Scirpus juncoides; 1 g a.i./10a) of the same compound?
The value was 1 (1: 10% to less than 20%).

And the “herbicidal efficacy (growth inhibition rate level), Scirpus juncoides” value (Scirpus juncoides; 5 g a.i./10a)?
Its value is 2 (2: 20% to less than 30%).

What about the “herbicidal efficacy (growth inhibition rate level), Echinochloa crus-galli” value (Echinochloa crus-galli; 1 g a.i./10a) of the same compound?
The value was 3 (3: 30% to less than 40%).

And the “herbicidal efficacy (growth inhibition rate level), Echinochloa crus-galli” value (Echinochloa crus-galli; 5 g a.i./10a)?
Its value is 3 (3: 30% to less than 40%).

With `CCC(=O)Nc1c(C#N)cnn1-c1nn2c(c1Cl)CCCC2` [Control Agent 4.187] as the compound, how does the “herbicidal efficacy (growth inhibition rate level), Amaranthus retroflexus” value (Amaranthus retroflexus [1]; 5 g a.i./10a) read?
The value was 4 (4: 40% to less than 50%).

What about the “herbicidal efficacy (growth inhibition rate level), Amaranthus retroflexus” value (Amaranthus retroflexus [1]; 10 g a.i./10a) of the same compound?
Its value is 5 (5: 50% to less than 60%).

What about the “herbicidal efficacy (growth inhibition rate level), Chenopodium album” value (Chenopodium album [2]; 5 g a.i./10a) of the same compound?
The value was 2 (2: 20% to less than 30%).

And the “herbicidal efficacy (growth inhibition rate level), Chenopodium album” value (Chenopodium album [2]; 10 g a.i./10a)?
Its value is 3 (3: 30% to less than 40%).

And the “herbicidal efficacy (growth inhibition rate level), Digitaria ciliaris” value (Digitaria ciliaris [3]; 5 g a.i./10a)?
The value was 2 (2: 20% to less than 30%).

What about the “herbicidal efficacy (growth inhibition rate level), Digitaria ciliaris” value (Digitaria ciliaris [3]; 10 g a.i./10a) of the same compound?
Its value is 3 (3: 30% to less than 40%).

And the “chemical damage (growth inhibition rate level), Oryza sativa” value (Oryza sativa; 1 g a.i./10a)?
Its value is 1 (1: 10% to less than 20%).

And the “chemical damage (growth inhibition rate level), Oryza sativa” value (Oryza sativa; 5 g a.i./10a)?
The value was 2 (2: 20% to less than 30%).

What about the “herbicidal efficacy (growth inhibition rate level), Galinsoga parviflora” value (Galinsoga parviflora) of the same compound?
Its value is 3 (3: 30% to less than 40%).

And the “herbicidal efficacy (growth inhibition rate level), Digitaria ciliaris” value (Digitaria ciliaris [4])?
Its value is 2 (2: 20% to less than 30%).

And the “herbicidal efficacy (growth inhibition rate level), Amaranthus retroflexus” value (Amaranthus retroflexus [5]; 5 g a.i./10a)?
Its value is 5 (5: 50% to less than 60%).

And the “herbicidal efficacy (growth inhibition rate level), Amaranthus retroflexus” value (Amaranthus retroflexus [5]; 10 g a.i./10a)?
The value was 6 (6: 60% to less than 70%).

And the “herbicidal efficacy (growth inhibition rate level), Chenopodium album” value (Chenopodium album [6]; 5 g a.i./10a)?
Its value is 2 (2: 20% to less than 30%).

What about the “herbicidal efficacy (growth inhibition rate level), Chenopodium album” value (Chenopodium album [6]; 10 g a.i./10a) of the same compound?
Its value is 3 (3: 30% to less than 40%).

And the “herbicidal efficacy (growth inhibition rate level), Digitaria ciliaris” value (Digitaria ciliaris [7]; 5 g a.i./10a)?
Its value is 2 (2: 20% to less than 30%).

And the “herbicidal efficacy (growth inhibition rate level), Digitaria ciliaris” value (Digitaria ciliaris [7]; 10 g a.i./10a)?
Its value is 3 (3: 30% to less than 40%).

And the “herbicidal efficacy (growth inhibition rate level), Monochoria vaginalis” value (Monochoria vaginalis; 1 g a.i./10a)?
Its value is 3 (3: 30% to less than 40%).

What about the “herbicidal efficacy (growth inhibition rate level), Monochoria vaginalis” value (Monochoria vaginalis; 5 g a.i./10a) of the same compound?
Its value is 3 (3: 30% to less than 40%).

What about the “herbicidal efficacy (growth inhibition rate level), Scirpus juncoides” value (Scirpus juncoides; 1 g a.i./10a) of the same compound?
Its value is 0 (0 (exponent): 0% to less than 10% (growth inhibition rate)).

What about the “herbicidal efficacy (growth inhibition rate level), Scirpus juncoides” value (Scirpus juncoides; 5 g a.i./10a) of the same compound?
The value was 1 (1: 10% to less than 20%).

And the “herbicidal efficacy (growth inhibition rate level), Echinochloa crus-galli” value (Echinochloa crus-galli; 1 g a.i./10a)?
Its value is 2 (2: 20% to less than 30%).

And the “herbicidal efficacy (growth inhibition rate level), Echinochloa crus-galli” value (Echinochloa crus-galli; 5 g a.i./10a)?
The value was 3 (3: 30% to less than 40%).
